Test results taken from paper PMC10765884, “MC180295 is a highly potent and selective CDK9 inhibitor with preclinical in vitro and in vivo efficacy in cancer” (Clinical Epigenetics, 2024).

Experiments:
MV4-11-luc cells = assay: MV4-11-luc AML model in NSG mice; conditions: MV4-11-luc in NSG mice, 0.5 mg/kg DAC i.p. daily alone
Experimental: E NSG mice were inoculated (i.p.) with 5 × 10^5 MV4-11-luc cells. Four days later, when substantial tumor burden was evident by bioluminescence imaging, MC180379, MC180380, or vehicle were administered (i.p.) q.o.d at 20 mg/kg. Luciferase expression was quantified and calculated. F Mouse survival in days. […] Significances were calculated using log-rank (Mantel-Cox) or Student’s t tests.
0.5 mg/kg DAC was administered (i.p.) daily. […] B Mouse survival in days. 20 mg/kg MC180295 was administered (i.p.) q.o.d. 0.5 mg/kg DAC was administered (i.p.) daily. C NSG mice were inoculated (i.p.) with 5 × 10^5 MV4-11-luc cells. Four days later, when substantial tumor burden was evident by bioluminescence imaging, MC180295 (20 mg/kg) or vehicle were administered (i.p.) every other day. 0.5 mg/kg DAC was administered (i.p.) daily. Luciferase expression was quantified and calculated. […] 0.5 mg/kg DAC was administered (i.p.) daily. Mouse survival shown in days. Significances were calculated using log-rank (Mantel-Cox) or Student's t tests. Data are shown as means ± SEMs. ***p < 0.001
Both female and male NOD.Cg-Prkdcscid Il2rgtm1Wjl/SzJ (NSG) mice were used for the experiments. Age- and gender-matched mice were randomly assigned to each group. 8–10-week-old NSG mice were tail vein-injected with 5 × 10^5 MV4-11-luc cells. […] Natural death or accumulation of ascites fluid were used as endpoints.

[1] = Drug toxicity: body weights and complete blood counts in tumor-bearing mice; format: in vivo; conditions: MV4-11 model, NSG mice, Fig. S4D
CT26.CL25 cells = assay: CT26.CL25 colon cancer model in B6 mice with/without CD8 depletion; format: in vivo; conditions: CT26.CL25 s.c. in B6 mice, MC180295 20 mg/kg i.p. q.o.d., DAC 0.5 mg/kg i.p. daily
Experimental: Fig. 5 Survival and antitumor effects of MC180295, DAC, or their combination, with/without CD8 + T cells. A 20 mg/kg MC180295 was administered (i.p.) q.o.d. 0.5 mg/kg DAC was administered (i.p.) daily. Mouse survival in days. B Survival of B6 mice, after CD8 depletion, using an anti-CD8 antibody. 20 mg/kg MC180295 was administered (i.p.) q.o.d. 0.5 mg/kg DAC was administered (i.p.) daily. C Antitumor effects of MC180295 with and without CD8 depletion, using an anti-CD8 antibody. B6 mice were inoculated (s.c.) with 5 × 10^5 CT26.CL25 cells. Eight days later, when tumors were palpable, 20 mg/kg MC180295 was administered (i.p.) q.o.d. 0.5 mg/kg DAC was administered (i.p.) daily. Tumor sizes were measured using a caliper and calculated over vehicle. D Antitumor effects of DAC, with and without CD8 depletion, using an anti-CD8 antibody. B6 mice were inoculated (s.c.) with 5 × 10^5 CT26.CL25 cells. Eight days later, when tumors were palpable, 20 mg/kg MC180295 was administered (i.p.) q.o.d. 0.5 mg/kg DAC was administered (i.p.) daily. Tumor sizes were measured using a caliper and calculated over vehicle. E Antitumor effects of DAC + MC180295, with and without CD8 depletion, using an anti-CD8 antibody. B6 mice were inoculated (s.c.) with 5 × 10^5 CT26.CL25 cells. Eight days later, when tumors were palpable, 20 mg/kg MC180295 was administered (i.p.) q.o.d. 0.5 mg/kg DAC was administered (i.p.) daily. Tumor sizes were measured using a caliper and calculated over vehicle. Significances were calculated using log-rank (Mantel-Cox) or Student's T tests. Data shown as means ± SEMs
For the s.c. SW48 model, 2 × 10^6 cells were injected into the flanks of randomly assigned, gender-matched 8–10-week-old NSG mice. 20 mg/kg MC180379, MC180380, or MC180295 was injected (i.p.), every other day, when the tumors were palpable, 11 days after engraftment, until endpoints were met. Mice were sacrificed before tumor volumes exceeded 400 mm^2 (endpoint for this model). For the s.c. HT29 model, 2 × 10^6 cells were injected into the flanks of randomly assigned, gender-matched, 8–10-week-old NSG mice. […]

CDK9 = biological target: T1, CDK9 (Homo sapiens, UniProt P50750); parameters: method as in PMID 26083714; conditions: cited from earlier work
T1 construct: purchased Reaction Biology Corp
T1 sequence (P50750 whole entry): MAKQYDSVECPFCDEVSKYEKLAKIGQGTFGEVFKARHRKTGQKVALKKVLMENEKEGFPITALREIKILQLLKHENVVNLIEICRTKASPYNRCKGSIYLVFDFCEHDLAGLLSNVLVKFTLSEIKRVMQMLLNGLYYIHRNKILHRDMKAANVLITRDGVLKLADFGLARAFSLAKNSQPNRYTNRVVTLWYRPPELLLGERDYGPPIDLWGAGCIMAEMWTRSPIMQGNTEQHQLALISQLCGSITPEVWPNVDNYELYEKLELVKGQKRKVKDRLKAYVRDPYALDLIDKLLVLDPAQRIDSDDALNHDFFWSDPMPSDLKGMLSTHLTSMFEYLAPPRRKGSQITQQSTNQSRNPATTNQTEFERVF
T1 sequence (O60563 whole entry partner): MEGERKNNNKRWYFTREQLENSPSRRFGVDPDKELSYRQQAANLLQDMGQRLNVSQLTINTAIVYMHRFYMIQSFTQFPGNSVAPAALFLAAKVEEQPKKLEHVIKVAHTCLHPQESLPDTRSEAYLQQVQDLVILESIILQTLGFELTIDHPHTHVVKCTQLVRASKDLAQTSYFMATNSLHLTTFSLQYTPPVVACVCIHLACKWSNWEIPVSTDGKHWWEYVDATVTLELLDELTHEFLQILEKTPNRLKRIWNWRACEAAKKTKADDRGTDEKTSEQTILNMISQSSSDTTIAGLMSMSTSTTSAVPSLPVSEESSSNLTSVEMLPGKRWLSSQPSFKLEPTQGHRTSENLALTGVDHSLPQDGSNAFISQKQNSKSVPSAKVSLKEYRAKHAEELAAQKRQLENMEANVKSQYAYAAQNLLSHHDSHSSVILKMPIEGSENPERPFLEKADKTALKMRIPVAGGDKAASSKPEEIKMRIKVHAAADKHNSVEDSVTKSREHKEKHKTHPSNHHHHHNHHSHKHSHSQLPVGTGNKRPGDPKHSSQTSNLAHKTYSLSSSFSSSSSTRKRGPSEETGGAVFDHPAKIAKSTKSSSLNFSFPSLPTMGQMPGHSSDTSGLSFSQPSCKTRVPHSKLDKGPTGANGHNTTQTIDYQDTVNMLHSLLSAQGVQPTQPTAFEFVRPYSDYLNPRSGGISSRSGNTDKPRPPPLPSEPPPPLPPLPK

SMILES | survival (MV4-11-luc cells) | tumor suppression (luciferase) (MV4-11-luc cells) | body weights [1] | tumor size (CT26.CL25 cells) | selectivity toward CDK9, compared to CDKs 1, 2, 4, 7, and 8 (CDK9)
Nc1ncn([C@H]2C[C@H](O)[C@@H](CO)O2)c(=O)n1 [DAC, decitabine, reference compound] | did not show consistent tumor suppression or a survival benefit | did not show consistent tumor suppression | did not affect NSG mouse body weights | significantly decrease tumor size, in a CD8 + T cell-dependent manner | –
NC1CCC(Nc2cc(-c3cccc(NCc4cccc(F)c4)n3)c(Cl)cn2)CC1 (centres unmarked) [iCDK9] | – | – | – | – | more than 600 fold
